Measured values reported in patent US11459323B2, “Monocyclic β-lactam compound for treating bacterial infection” (MEDSHINE DISCOVERY INC., priority 2018, dated 2022).
≈ marks a conversion by molar mass, not a printed value. Read-outs that look alike come from different tables or passages of the source.

Assays:
[1] = system: K. pneumoniae ATCC BAA-205 (TEM-1/SHV-1/SHV-12); test: MIC by micro-liquid dilution method (CLSI); type: cell-based, Klebsiella pneumonia; settings: Klebsiella pneumoniae, ATCCBAA205; K. pneumoniae ATCCBAA-205; read-out: MIC
[2] = system: K. pneumoniae ATCC BAA-1705 (KPC-2); test: MIC by micro-liquid dilution method (CLSI); type: cell-based, Klebsiella pneumonia; settings: Klebsiella pneumoniae, ATCCBAA1705; K. pneumoniae ATCCBAA-1705; read-out: MIC
[3] = system: K. pneumoniae ATCC BAA-2470 (NDM-1); test: MIC by micro-liquid dilution method (CLSI); type: cell-based, Klebsiella pneumonia; settings: Klebsiella pneumoniae, ATCCBAA2470; K. pneumoniae ATCCBAA-2470; read-out: MIC
[4] = system: E. coli ATCC BAA-2523 (OXA-48); test: MIC by micro-liquid dilution method (CLSI); type: cell-based; settings: Escherichia coli, ATCCBAA2523
From the text: (§1) Three strains of Klebsiella pneumonia, K. pneumoniae ATCC BAA-205 (TEM-1/SHV-1/SHV-12), K. pneumoniae ATCC BAA-1705 (KPC-2), K. pneumoniae ATCC BAA-2470 (NDM-1); three strains of Pseudomonas aeruginosa, P. aeruginosa NCTC13437 (VIM-10; VEB-1), P. aeruginosa PA 14 and P. aeruginosa ATCC 35151; four strains of Escherichia coli, E. coli NCTC 13476 (IMP-1 type), E. coli ATCC BAA-2523 (OXA-48), E. coli MG1655Δtol C, E. coli ATCC 25922; one strain of Acinetobacter baumannii, A. baumannii ATCC 17978 and one strain of Staphylococcus aureus, S. aureus NRS384 were used to determine the minimum inhibitory concentration (MIC) of the compounds by micro-liquid dilution method according to the Institute of Clinical and Laboratory Standard (CLSI) requirements.

[5] = system: E. coli MG1655Δtol C; test: MIC by micro-liquid dilution method (CLSI); type: cell-based; settings: Escherichia coli
From the text: as §1

[6] = system: P. aeruginosa PA 14; test: MIC by micro-liquid dilution method (CLSI); type: cell-based; settings: Pseudomonas aeruginosa, PA14; P. aeruginosa PA 14; read-out: MIC
From the text: as §1

[7] = system: P. aeruginosa ATCC 35151; test: MIC by micro-liquid dilution method (CLSI); type: cell-based; settings: Pseudomonas aeruginosa
[8] = system: A. baumannii ATCC 17978; test: MIC by micro-liquid dilution method (CLSI); type: cell-based; settings: Acinetobacter baumannii; A. baumannii ATCC17978; read-out: MIC
[9] = system: E. coli ATCC 25922; test: MIC by micro-liquid dilution method (CLSI); type: cell-based; settings: Escherichia coli
[10] = system: Acinetobacter baumannii ATCC 17978; test: MIC on Acinetobacter baumannii strains; type: cell-based; settings: ATCC17978
From the text: (§2) Twelve strains of Acinetobacter baumannii, A. baumannii ATCC 17978 (ATCC-BAA-1605, ATCC-BAA-1789, ATCC-BAA-1790, ATCC-BAA-1791, ATCC-BAA-1792, ATCC-BAA-1793, ATCC-BAA-1794, ATCC-BAA-1795, ATCC-BAA-1799, ATCC-BAA-1800, ATCC 19606, ATCC 17978) were used to determine the minimum inhibitory concentration (MIC) of the compounds by micro-liquid dilution method according to the Institute of Clinical and Laboratory Standard (CLSI) requirements.

[11] = system: Acinetobacter baumannii ATCC 19606; test: MIC on Acinetobacter baumannii strains; type: cell-based; settings: ATCC19606
From the text: as §2

[12] = system: Acinetobacter baumannii ATCC-BAA-1605; test: MIC on Acinetobacter baumannii strains; type: cell-based; settings: ATCCBAA1605, ATCC-BAA-1605, read-out: MIC
From the text: as §2

[13] = system: Acinetobacter baumannii ATCC-BAA-1789; test: MIC on Acinetobacter baumannii strains; type: cell-based; settings: ATCCBAA1789
From the text: as §2

[14] = system: Acinetobacter baumannii ATCC-BAA-1790; test: MIC on Acinetobacter baumannii strains; type: cell-based; settings: ATCCBAA1790, ATCC-BAA-1790, read-out: MIC
From the text: as §2

[15] = system: Acinetobacter baumannii ATCC-BAA-1791; test: MIC on Acinetobacter baumannii strains; type: cell-based; settings: ATCCBAA1791
From the text: as §2

[16] = system: Acinetobacter baumannii ATCC-BAA-1792; test: MIC on Acinetobacter baumannii strains; type: cell-based; settings: ATCCBAA1792, ATCC-BAA-1792, read-out: MIC
From the text: as §2

[17] = system: Acinetobacter baumannii ATCC-BAA-1793; test: MIC on Acinetobacter baumannii strains; type: cell-based; settings: ATCCBAA1793, ATCC-BAA-1793, read-out: MIC
From the text: as §2

[18] = system: Acinetobacter baumannii ATCC-BAA-1794; test: MIC on Acinetobacter baumannii strains; type: cell-based; settings: ATCCBAA1794, ATCC-BAA-1794, read-out: MIC
From the text: as §2

[19] = system: Acinetobacter baumannii ATCC-BAA-1795; test: MIC on Acinetobacter baumannii strains; type: cell-based; settings: ATCCBAA1795
From the text: as §2

[20] = system: Acinetobacter baumannii ATCC-BAA-1799; test: MIC on Acinetobacter baumannii strains; type: cell-based; settings: ATCCBAA1799, ATCC-BAA-1799, read-out: MIC
From the text: as §2

[21] = system: Acinetobacter baumannii ATCC-BAA-1800; test: MIC on Acinetobacter baumannii strains; type: cell-based; settings: ATCCBAA1800, ATCC-BAA-1800, read-out: MIC
From the text: as §2

[22] = system: E. coli NCTC 13476 (IMP-1 type); test: MIC by micro-liquid dilution method (CLSI); type: cell-based; settings: Escherichia coli; E. coli NCTC13476; read-out: MIC
From the text: as §1

SMILES | MIC [1] [µg/mL] | MIC [2] [µg/mL] | MIC [3] [µg/mL] | MIC [5] [µg/mL] | MIC [6] [µg/mL] | MIC [8] [µg/mL] | MIC [10] [µg/mL] | MIC [11] [µg/mL] | MIC [12] [µg/mL] | MIC [13] [µg/mL] | MIC [14] [µg/mL] | MIC [15] [µg/mL] | MIC [16] [µg/mL] | MIC [17] [µg/mL] | MIC [18] [µg/mL] | MIC [19] [µg/mL] | MIC [20] [µg/mL] | MIC [21] [µg/mL] | also measured
CC1(C)[C@H](NC(=O)/C(=N\OCCOc2ccc3c(c2)CCN(C(=N)N)C3)c2csc(N)n2)C(=O)N1OS(=O)(=O)O [Compound 3] | 8 (≈ 13.4 µM) | 4 (≈ 6.7 µM) | 2 (≈ 3.35 µM) | ≤ 0.0039 | 4 (≈ 6.7 µM) | 2 (≈ 3.35 µM) | 4 (≈ 6.7 µM) | 8 (≈ 13.4 µM) | 16 (≈ 26.8 µM) | 16 (≈ 26.8 µM) | 16 (≈ 26.8 µM) | 16 (≈ 26.8 µM) | 16 (≈ 26.8 µM) | 8 (≈ 13.4 µM) | 8 (≈ 13.4 µM) | 8 (≈ 13.4 µM) | 16 (≈ 26.8 µM) | 8 (≈ 13.4 µM) | MIC ([4]; E. coli ATCCBAA-2523, read-out: MIC): 0.25 µg/mL (≈ 0.419 µM); MIC ([7]; P. aeruginosa ATCC35151, read-out: MIC): 0.0625 µg/mL (≈ 0.105 µM); MIC ([9]; E. coli ATCC25922, read-out: MIC): 0.25 µg/mL (≈ 0.419 µM)
CC1(C)[C@H](NC(=O)/C(=N\OCCOc2ccc3c(c2)CCN(C(=N)NCCCN)C3)c2csc(N)n2)C(=O)N1OS(=O)(=O)O [Compound 4] | 8 (≈ 12.2 µM) | 1 (≈ 1.53 µM) | 0.5 (≈ 0.765 µM) | ≤ 0.125 | 1 (≈ 1.53 µM) | 0.5 (≈ 0.765 µM) | 0.5 (≈ 0.765 µM) | 8 (≈ 12.2 µM) | 8 (≈ 12.2 µM) | 4 (≈ 6.12 µM) | 4 (≈ 6.12 µM) | 2 (≈ 3.06 µM) | 4 (≈ 6.12 µM) | 4 (≈ 6.12 µM) | 4 (≈ 6.12 µM) | 4 (≈ 6.12 µM) | 4 (≈ 6.12 µM) | 8 (≈ 12.2 µM) | MIC [4]: ≤ 0.125 µg/mL; MIC [22]: 0.25 µg/mL (≈ 0.382 µM); MIC ([7]; ATCC35151): ≤ 0.125 µg/mL; MIC ([9]; ATCC25922): ≤ 0.125 µg/mL
CC1(C)[C@H](NC(=O)/C(=N\OCCOc2ccc3c(c2)CC[N+](C)(CCCN)C3)c2csc(N)n2)C(=O)N1OS(=O)(=O)[O-] (stereo partly shown) [Compound 5] | – | – | – | – | – | – | 1 (≈ 1.6 µM) | 16 (≈ 25.6 µM) | 16 (≈ 25.6 µM) | 8 (≈ 12.8 µM) | 8 (≈ 12.8 µM) | 2 (≈ 3.2 µM) | 16 (≈ 25.6 µM) | 16 (≈ 25.6 µM) | 16 (≈ 25.6 µM) | 16 (≈ 25.6 µM) | 16 (≈ 25.6 µM) | 16 (≈ 25.6 µM) | –
